{"source": "patent US20160193240A1", "about": "“Ulmoside-A: Useful For Prevention Or Cure Of Metabolic Diseases” (COUNCIL OF SCIENTIFIC & INDUSTRIAL RESEARCH, priority 2013, published 2016)", "tested_on": "GAL-PPARα", "test": "PPARα activation assay (GAL-PPARα / GAL4-Luc reporter) in HEK293 cells expressing endogenous AdipoR1", "assay_type": "cell-based, human", "experimental": "A. ULMA enhances PPARα ligand activity; HEK293 cells were seeded on to 24 well plates and after 24 h, transfected with 100 ng of GAL-PPARα and 100 ng GAL4-Luc along with 100 ng eGFPC1 (Clontech) plasmids using lipofectamine LTX (Invitrogen) according to manufacturer's instructions. 24 h after transfection, cells were treated with or without 100 pM GW-7647 alone or in combination with 100 nM ULMA or 1 μg/ml globular adiponectin (gAd) for 6 h. Following which, the cells were lysed and GFP fluorescence and firefly luciferase activities were measured. Luciferase activity was normalized with GFP fluorescence and plotted as fold activity over vehicle (0.1% DMSO) treated control. Data shown in mean±SEM of three independent experiments performed in duplicates. *p<0.05 as determined by two tailed unpaired student's t-test.\nThe potential of ULMA to activate adiponectin receptor signaling was evaluated using a PPARα activation assay. […] 24 hours following plating, these cells were transfected with 100 ng of GAL-PPARα (PPARα cDNA fused with GAL4 DNA binding domain) and 100 ng GAL4 upstream activation sequence driven luciferase (GAL4-Luc) reporter gene that is capable of binding to any protein fused to GAL4-DNA binding domain (in this case GAL-PPARα) and 100 ng Green fluorescence expressing plasmid (GFP) that was used as an internal control, using lipofectamine LTX transfection reagent (Invitrogen) according to manufacturers' instructions. […] The cells were then lysed and luciferase activity was measured in a Promega GloMax luminometer using steady Glo luciferase assay kit (Promega) according to manufacturers' instructions; and GFP fluorescence was measured in a fluorimeter (Polarstar Galaxy, BMG Labtech). […]"}
{"smiles": "O=C1c2c(cc(O)c([C@@H]3O[C@H](CO)[C@@H](O)[C@H](O)[C@H]3O)c2O)O[C@@H](c2ccc(O)c(O)c2)[C@@H]1O", "note": "[ULMA, (2S,3S)-(+)-3′,4′,5,7-tetrahydroxydihydroflavonol-6-C-β-D-glucopyranoside]", "values": [{"measurement": "potency in enhancing PPARα ligand activity, comparison", "setting": "100 nM ULMA vs 1 μg/ml globular adiponectin, with 100 pM GW-7647", "value": "more potent than globular adiponectin"}, {"measurement": "enhancement of GW-7647 induced luciferase activity (PPARα ligand activity)", "setting": "co-treatment with 100 pM GW-7647, 100 nM ULMA or 1 μg/ml globular adiponectin, 6 hours", "value": "further enhanced"}]}
